# Values of other authors, collected in paper PMC6222696, “Inhibition of UGT2B7 Enzyme Activity in Human and Rat Liver Microsomes by Herbal Constituents” (Molecules : A Journal of Synthetic Chemistry and Natural …, 2018).
# Like-named read-outs stand apart in the source and are kept apart here.
# Columns and labels:
# [1] = test system: UGT nonspecific; parameters: method as in ref 26-30 (kaempferol); 26, 27, 29, 31, 38, 39 (quercetin); conditions: mammalian cells; ref 26-30 (kaempferol); 26, 27, 29, 31, 38, 39 (quercetin); cited from earlier work
# [2] = test system: UGT1A1; parameters: method as in ref 26-30 (kaempferol); 35-37 (mitragynine); 26, 27, 29, 31, 38, 39 (quercetin); conditions: supersomes; ref 26-30 (kaempferol); 35-37 (mitragynine); 26, 27, 29, 31, 38, 39 (quercetin); cited from earlier work
# [3] = test system: UGT1A1; parameters: method as in ref 26-30 (kaempferol); 26, 27, 29, 31, 38, 39 (quercetin); conditions: mammalian cells; ref 26-30 (kaempferol); 26, 27, 29, 31, 38, 39 (quercetin); cited from earlier work
# [4] = test system: UGT1A3; parameters: method as in ref 19-24 (andrographolide); 26-30 (kaempferol); 32-34 (mangiferin); 26, 27, 29, 31, 38, 39 (quercetin); conditions: supersomes; ref 19-24 (andrographolide); 26-30 (kaempferol); 32-34 (mangiferin); 26, 27, 29, 31, 38, 39 (quercetin); cited from earlier work
# [5] = test system: UGT1A6; parameters: method as in ref 19-24 (andrographolide); 26-30 (kaempferol); 32-34 (mangiferin); 26, 27, 29, 31, 38, 39 (quercetin); conditions: supersomes; ref 19-24 (andrographolide); 26-30 (kaempferol); 32-34 (mangiferin); 26, 27, 29, 31, 38, 39 (quercetin); cited from earlier work
# [6] = test system: UGT1A9; conditions: HLM, supersomes, cited from earlier work
# [7] = test system: UGT2B7; conditions: supersomes; ref 26-30 (kaempferol); 35-37 (mitragynine); cited from earlier work
# [8] = test system: UGT2B10; parameters: method as in ref 26-30 (kaempferol); 26, 27, 29, 31, 38, 39 (quercetin); conditions: supersomes; ref 26-30 (kaempferol); 26, 27, 29, 31, 38, 39 (quercetin); cited from earlier work
# [9] = test system: UGT1A1; parameters: method as in PMID 18001207, PMID 19889883, PMID 25008344, PMID 24553666, PMID 29574133; conditions: mice; cited from earlier work
# [10] = test system: UGT1A6; parameters: method as in PMID 18001207, PMID 19889883, PMID 24553666, PMID 22958586, PMID 10660112; conditions: mammalian cells; cited from earlier work
# [11] = test system: UGT2B17; conditions: supersomes; ref 31 (gallic acid); 32-34 (mangiferin); 26, 27, 29, 31, 38, 39 (quercetin); cited from earlier work
# [12] = test system: UGT nonspecific; parameters: method as in ref 19-24 (andrographolide); 35-37 (mitragynine); 26, 27, 29, 31, 38, 39 (quercetin); conditions: rats; ref 19-24 (andrographolide); 35-37 (mitragynine); 26, 27, 29, 31, 38, 39 (quercetin); cited from earlier work
# [13] = test system: UGT nonspecific; parameters: method as in PMID 28479734; conditions: system not given; cited from earlier work
SMILES,"UGT nonspecific, in vitro study [1]","UGT1A1, in vitro study [2]","UGT1A1, in vitro study [3]","UGT1A3, in vitro study [4]","UGT1A6, in vitro study [5]","UGT1A9, in vitro study ([6]; HIM)","UGT2B7, in vitro study [7]","UGT2B10, in vitro study [8]","UGT1A1, in vivo/ex vivo study [9]","UGT1A6, in vitro study [10]","UGT1A9, in vitro study ([6]; RLM)","UGT2B17, in vitro study [11]","UGT nonspecific, in vivo/ex vivo study [12]","UGT nonspecific, in vitro study [13]"
O=c1c(O)c(-c2ccc(O)cc2)oc2cc(O)cc(O)c12 [Kaempferol],UGT nonspecific ↑ (mammalian cells),UGT1A1 ↓ (supersomes),UGT1A1 ↑ (mammalian cells),UGT1A3 ↓ (supersomes),UGT1A6 ↓ (supersomes),"UGT1A9 ↓ (HLM, HIM, supersomes)",UGT2B7 ↓ (supersomes),UGT2B10 ↓ (supersomes),UGT1A1 ↑ (mice),,,,,
"O=c1c(O)c(-c2ccc(O)c(O)c2)oc2cc(O)cc(O)c12 [Quercetin, quercetin]",UGT nonspecific ↑ (mammalian cells),UGT1A1 ↓ (supersomes),UGT1A1 ↑ (mammalian cells),UGT1A3 ↓ (supersomes),,,,,,UGT1A6 ↑ (mammalian cells),"UGT1A9 ↓ (HLM, RLM, supersomes)",UGT2B17 ↓ (supersomes),UGT nonspecific ↑ (rat),
COc1cc(C=O)ccc1O [Vanillin],,,,,,,,,,,,,,UGT nonspecific ↓
